Assay results reported in patent US8563714B2, “Bridged spiro [2.4] heptane derivatives as ALX receptor and/or FPRL2 agonists” (Actelion Pharmaceuticals Ltd., priority 2009, dated 2013).

How the values were obtained:
human ALX receptor = target: T1, human ALX receptor (Homo sapiens, UniProt P25090); assay: Intracellular calcium measurements (FLIPR), agonistic activity in HEK293-hALXR-Gα16 cells; type: cell-based; details: Fluo-4 calcium FLIPR, normalized to WKYMVm 10 nM
T1 construct: expressed in transfected cells; host or cells: HEK293 (HEK293-hALXR-Gα16)
T1 sequence (P25090 1-351): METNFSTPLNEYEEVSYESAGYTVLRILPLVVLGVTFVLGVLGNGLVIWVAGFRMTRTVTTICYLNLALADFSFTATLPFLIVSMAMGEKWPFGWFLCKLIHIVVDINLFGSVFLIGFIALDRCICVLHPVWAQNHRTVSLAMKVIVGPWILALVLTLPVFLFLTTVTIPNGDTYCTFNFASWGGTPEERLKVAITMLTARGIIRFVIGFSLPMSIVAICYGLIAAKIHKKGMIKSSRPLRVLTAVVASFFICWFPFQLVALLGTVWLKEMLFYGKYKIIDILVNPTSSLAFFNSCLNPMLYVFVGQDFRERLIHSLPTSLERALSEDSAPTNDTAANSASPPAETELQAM
Method in brief: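 Agonist-induced calcium flux was recorded by FLIPR (488/540 nm) in HEK293-hALXR-Gα16 cells pre-loaded with Fluo-4 AM (1 μM, 60 min, 37°C). Peak signal above baseline, after subtracting buffer addition, was expressed relative to WKYMVm at 10 nM final.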

human FPRL2 = target: T2, human FPRL2 (Homo sapiens, UniProt P25089); assay: Intracellular calcium measurements (FLIPR), agonistic activity in HEK293-hFPRL2-Gα16 cells; type: cell-based; details: Fluo-4 calcium FLIPR, normalized to GLY14-Humanin 100 nM
T2 construct: expressed in transfected cells; host or cells: HEK293 (HEK293-hFPRL2-Gα16)
T2 sequence (P25089 1-353): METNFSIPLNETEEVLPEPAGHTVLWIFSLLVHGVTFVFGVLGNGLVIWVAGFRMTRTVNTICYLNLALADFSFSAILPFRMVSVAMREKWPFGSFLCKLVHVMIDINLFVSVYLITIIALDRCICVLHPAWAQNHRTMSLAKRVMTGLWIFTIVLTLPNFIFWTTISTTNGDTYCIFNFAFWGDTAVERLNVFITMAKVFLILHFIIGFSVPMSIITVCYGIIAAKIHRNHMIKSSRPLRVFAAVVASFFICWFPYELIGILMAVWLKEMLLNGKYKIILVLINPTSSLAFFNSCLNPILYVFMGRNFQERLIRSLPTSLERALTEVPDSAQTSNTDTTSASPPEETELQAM
Method in brief: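 Peak values after baseline subtraction are expressed relative to 100 nM Gly14-Humanin; compounds diluted in assay buffer from 10 mM DMSO stocks.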

Row | SMILES | EC50 (human ALX receptor) [nM] | EC50 (human FPRL2) [nM]
1 | CN1CCN(CCCNC(=O)[C@H]2[C@H](C(=O)Nc3ncc(Br)s3)[C@@H]3C=C[C@H]2C32CC2)CC1 (racemic) [Example 265, (5R*)—N^5-(5-Bromothiazol-2-yl)-(6R*)—N^6-(3-(4-methylpiperazin-1-yl)-propyl)-(4S*,7R*)-[4,7-ethenylene-spiro[2.4]heptane]-5,6-dicarboxamide] | 49 | 462
2 | CC(=O)c1csc(CNC(=O)[C@H]2[C@H](C(=O)NCCN(C)C)[C@H]3C=C[C@@H]2C32CC2)n1 (racemic) [Example 266, (5R*)—N^5-(4-Acetyl-thiazol-2-yl-methyl)-(6R*)—N^6-(2-dimethylamino-ethyl)-(4S*,7R*)-[4,7-ethenylene-spiro[2.4]heptane]-5,6-dicarboxamide] | 65 | 1210
3 | CC(=O)c1csc(CNC(=O)[C@H]2[C@H](C(=O)NCCCN(C)C)[C@H]3C=C[C@@H]2C32CC2)n1 (racemic) [Example 267, (5R*)—N^5-(4-Acetyl-thiazol-2-yl-methyl)-(6R*)—N^6-(3-dimethylamino-propyl)-(4S*,7R*)-[4,7-ethenylene-spiro[2.4]heptane]-5,6-dicarboxamide] | 288 | 15300
4 | CC(=O)c1csc(CNC(=O)[C@H]2[C@H](C(=O)NCCCN3CCN(C)CC3)[C@H]3C=C[C@@H]2C32CC2)n1 (racemic) [Example 268, (5R*)—N^5-(4-Acetyl-thiazol-2-yl-methyl)-(6R*)—N^6-(3-(4-methylpiperazin-1-yl)-propyl)-(4S*,7R*)-[4,7-ethenylene-spiro[2.4]heptane]-5,6-dicarboxamide] | 477 | 22900
5 | CC(=O)c1csc(CNC(=O)[C@H]2[C@H](C(=O)NCCN3CCNC3=O)[C@H]3C=C[C@@H]2C32CC2)n1 (racemic) [Example 269, (5R*)—N^5-(4-Acetyl-thiazol-2-yl-methyl)-(6R*)—N^6-((2-imidazolidin-2-on)-1-yl-ethyl)-(4S*,7R*)-[4,7-ethenylene-spiro[2.4]heptane]-5,6-dicarboxamide] | 82 | 3550
6 | CCN(CC)CCCCNC(=O)[C@H]1[C@H](C(=O)Nc2ncc(Br)s2)[C@@H]2C=C[C@H]1C21CC1 (racemic) [Example 270, (5R*)—N^5-(5-Bromothiazol-2-yl)-(6R*)—N^6-(4-diethylamino-butyl)-(4S*,7R*)-[4,7-ethenylene-spiro[2.4]heptane]-5,6-dicarboxamide] | 54 | 396
7 | O=C(NCCF)[C@H]1[C@H](C(=O)NCc2ccc(Br)cc2)[C@@H]2C=C[C@H]1C21CC1 (racemic) [Example 271, (5R*)—N^5-(4-Bromophenyl-methyl)-(6R*)—N^6-(2-fluoroethyl)-(4S*,7R*)-[4,7-ethenylene-spiro[2.4]heptane]-5,6-dicarboxamide] | 673 | > 25000
8 | CN1CCN(CCCNC(=O)[C@H]2[C@H](C(=O)NCc3ccc(Br)cc3)[C@@H]3C=C[C@H]2C32CC2)CC1 (racemic) [Example 273, (5R*)—N^5-(4-Bromophenyl-methyl)-(6R*)—N^6-(3-(4-methylpiperazin-1-yl)-propyl)-(4S*,7R*)-[4,7-ethenylene-spiro[2.4]heptane]-5,6-dicarboxamide] | 213 | 432
9 | CN(C)CCNC(=O)[C@H]1[C@H](C(=O)NCc2ccc(Br)cc2)[C@@H]2C=C[C@H]1C21CC1 (racemic) [Example 274, (5R*)—N^5-(4-Bromophenyl-methyl)-(6R*)—N^6-(2-dimethylamino-ethyl)-(4S*,7R*)-[4,7-ethenylene-spiro[2.4]heptane]-5,6-dicarboxamide] | 290 | 1170
10 | O=C(NCCN1CCNC1=O)[C@H]1[C@H](C(=O)NCc2ccc(Br)cc2)[C@@H]2C=C[C@H]1C21CC1 (racemic) [Example 275, (5R*)—N^5-(4-Bromophenyl-methyl)-(6R*)—N^6-((2-imidazolidin-2-on)-1-yl-ethyl)-(4S*,7R*)-[4,7-ethenylene-spiro[2.4]heptane]-5,6-dicarboxamide] | 181 | 7040
11 | COCCNC(=O)[C@H]1[C@H](C(=O)Nc2ncc(Br)s2)[C@@H]2C=C[C@H]1C21CC1 (racemic) [Example 276, (5R*)—N^5-(5-Bromothiazol-2-yl)-(6R*)—N^6-(2-methoxy-ethyl)-(4S*,7R*)-[4,7-ethenylene-spiro[2.4]heptane]-5,6-dicarboxamide] | 44 | > 25000
12 | CN(C)CCCNC(=O)[C@H]1[C@H](C(=O)Nc2ncc(Br)s2)[C@@H]2C=C[C@H]1C21CC1 (racemic) [Example 277, (5R*)—N^5-(5-Bromothiazol-2-yl)-(6R*)—N^6-(3-dimethylamino-propyl)-(4S*,7R*)-[4,7-ethenylene-spiro[2.4]heptane]-5,6-dicarboxamide] | 61 | 2010
13 | CC(=O)c1csc(CNC(=O)[C@H]2[C@H](C(=O)NCCCN)[C@H]3C=C[C@@H]2C32CC2)n1 (racemic) [Example 299, (5R*)—N^5-(4-Acetyl-thiazol-2-yl-methyl)-(6R*)—N^6-(3-amino-propyl)-(4S*,7R*)-[4,7-ethenylene-spiro[2.4]heptane]-5,6-dicarboxamide] | 273 | 359
14 | CC(=O)c1csc(CNC(=O)[C@H]2[C@H](C(=O)NCC3CCNCC3)[C@H]3C=C[C@@H]2C32CC2)n1 (racemic) [Example 300, (5R*)—N^5-(4-Acetyl-thiazol-2-yl-methyl)-(6R*)—N^6-(piperidin-4-yl-methyl)-(4S*,7R*)-[4,7-ethenylene-spiro[2.4]heptane]-5,6-dicarboxamide] | 384 | 1820

Second part, the compound after the results:

Row | EC50 (human ALX receptor) [nM] | EC50 (human FPRL2) [nM] | SMILES
15 | 98 | 2700 | CNCCNC(=O)[C@H]1[C@H](C(=O)Nc2ncc(Br)s2)[C@@H]2C=C[C@H]1C21CC1 (racemic) [Example 301, (5R*)—N^5-(5-Bromo-thiazol-2-yl)-(6R*)—N^6-(2-methylamino-ethyl)-(4S*,7R*)-[4,7-ethenylene-spiro[2.4]heptane]-5,6-dicarboxamide]
16 | 1.3 | 543 | NCCCCCNC(=O)[C@H]1[C@H](C(=O)Nc2ncc(Br)s2)[C@@H]2C=C[C@H]1C21CC1 (racemic) [Example 302, (5R*)—N^5-(5-Bromo-thiazol-2-yl)-(6R*)—N^6-(5-amino-pentyl)-(4S*,7R*)-[4,7-ethenylene-spiro[2.4]heptane]-5,6-dicarboxamide]
17 | 45 | 1340 | NCc1ccc(CNC(=O)[C@H]2[C@H](C(=O)Nc3ncc(Br)s3)[C@@H]3C=C[C@H]2C32CC2)cc1 (racemic) [Example 303, (5R*)—N^5-(5-Bromo-thiazol-2-yl)-(6R*)—N^6-(4-(aminomethyl)phenyl-methyl)-(4S*,7R*)-[4,7-ethenylene-spiro[2.4]heptane]-5,6-dicarboxamide]
18 | 12 | 1630 | CC(C)(CN)CNC(=O)[C@H]1[C@H](C(=O)Nc2ncc(Br)s2)[C@@H]2C=C[C@H]1C21CC1 (racemic) [Example 304, (5R*)—N^5-(5-Bromo-thiazol-2-yl)-(6R*)—N^6-(2,2-dimethyl-3-amino-propyl)-(4S*,7R*)-[4,7-ethenylene-spiro[2.4]heptane]-5,6-dicarboxamide]
19 | 350 | 2050 | CNCCNC(=O)[C@H]1[C@H](C(=O)NCc2ccc(Br)cc2)[C@@H]2C=C[C@H]1C21CC1 (racemic) [Example 305, (5R*)—N^5-(4-Bromophenyl-methyl)-(6R*)—N^6-(2-methylamino-ethyl)-(4S*,7R*)-[4,7-ethenylene-spiro[2.4]heptane]-5,6-dicarboxamide]
20 | 23 | 2760 | O=C(NC1CCNCC1)[C@H]1[C@H](C(=O)NCc2ccc(Br)cc2)[C@@H]2C=C[C@H]1C21CC1 (racemic) [Example 306, (5R*)—N^5-(4-Bromophenyl-methyl)-(6R*)—N^6-(piperidin-4-yl)-(4S*,7R*)-[4,7-ethenylene-spiro[2.4]heptane]-5,6-dicarboxamide]
21 | 76 | 2640 | NCCCNC(=O)[C@H]1[C@H](C(=O)NCc2ccc(Br)cc2)[C@@H]2C=C[C@H]1C21CC1 (racemic) [Example 307, (5R*)—N^5-(4-Bromophenyl-methyl)-(6R*)—N^6-(3-amino-propyl)-(4S*,7R*)-[4,7-ethenylene-spiro[2.4]heptane]-5,6-dicarboxamide]
